According to US12351828B2, “Method for constructing hepatic progenitor cell-like cell bank, cell lines prepared therefrom and application thereof” (SHANGHAI CELLIVER BIOTECHNOLOGY CO., LTD., priority 2019, dated 2025):

Experiments:
Test in all cases: Erlotinib-specific hepatotoxicity, in vitro three-dimensional hepatocyte model, PrestoBlue cell viability
Assay type in all cases: cell-based, human
[1] = test system: first hepatocyte model line; details: co-cultured 48 hours, 0.24-250 μMol/L, FIG. 6a
Excerpt: (§1) The in vitro three-dimensional hepatocyte model is constructed by using the hepatic progenitor cell-like cell bank. The method for constructing the in vitro three-dimensional hepatocyte model is stated in the “Expansion and Differentiation of Human Hepatocyte-derived Liver Progenitor-like Cells and Their Use for the Study of Hepatotropic Pathogens” published in Volume 29, Issue 1, 2018, Cell Research, and is not repeated here. In the process of constructing the in vitro three-dimensional hepatocyte model, a first hepatocyte model line, a second hepatocyte model line, a third hepatocyte model line, a fourth hepatocyte model line, a fifth hepatocyte model line and a sixth hepatocyte model line are obtained by the first immortal hepatic progenitor cell-like cell line, the second immortal hepatic progenitor cell-like cell line, the third immortal hepatic progenitor cell-like cell line, the fourth immortal hepatic progenitor cell-like cell line, the fifth immortal hepatic progenitor cell-like cell line and the sixth immortal hepatic progenitor cell-like cell line, respectively.
(§2) In the embodiment of the present invention, the specific toxic drug Erlotinib is used to characterize the specific hepatotoxicity of the in vitro three-dimensional hepatocyte model.
(§3) Preparing a Erlotinib solutions with concentrations of 250 μMol/L, 62.5 μMol/L, 15.625 μMol/L, 3.9 μMol/L, 0.97 μMol/L, 0.24 μMol/L by dimethyl sulfoxide (DMSO), and using DMSO as a blank reference.
(§4) Each hepatocyte model line in the in vitro three-dimensional hepatocyte model is co-cultured with different concentrations of Erlotinib aqueous solution for 48 hours.
(§5) After the co-culture is completed, the PrestoBlue™ cell viability testing reagent produced by Life Technologies is used to characterize the Erlotinib-specific hepatotoxicity in each culture obtained after the co-culture, respectively. The specific methods for the co-culture and the characterization of the Erlotinib-specific hepatotoxicity are common methods known by those skilled in the art and will not be repeated here.

[2] = test system: fifth hepatocyte model line; details: co-cultured 48 hours, 0.24-250 μMol/L, FIG. 6e
Excerpt: as §1, §2, §3, §4, §5

[3] = test system: sixth hepatocyte model line; details: co-cultured 48 hours, 0.24-250 μMol/L, FIG. 6f
Excerpt: as §1, §2, §3, §4, §5

[4] = test system: fourth hepatocyte model line; details: co-cultured 48 hours, 0.24-250 μMol/L, FIG. 6d
Excerpt: as §1, §2, §3, §4, §5

[5] = test system: second hepatocyte model line; details: co-cultured 48 hours, 0.24-250 μMol/L, FIG. 6b
Excerpt: as §1, §2, §3, §4, §5

[6] = test system: third hepatocyte model line; details: co-cultured 48 hours, 0.24-250 μMol/L, FIG. 6c
Excerpt: as §1, §2, §3, §4, §5

C#Cc1cccc(Nc2ncnc3cc(OCCOC)c(OCCOC)cc23)c1 [Erlotinib]
cell viability with the increase in the concentration of Erlotinib solution [1]: basically does not significant changed | cell viability with the increase in the concentration of Erlotinib solution [2]: basically does not significant changed | cell viability with the increase in the concentration of Erlotinib solution [3]: basically does not significant changed | cell viability with the increase in the concentration of Erlotinib solution [4]: significant downward trend | cell viability with the increase in the concentration of Erlotinib solution [5]: basically does not significant changed | cell viability with the increase in the concentration of Erlotinib solution [6]: significant downward trend
